Laboratory results taken from the NIST ThermoML archive (doi:10.1021/je100610v).

Experiments:
[1] = molar heat capacity at constant pressure; conditions: 101 kPa, Liquid
[2] = 101 kPa, Liquid; for speed of sound: Pulse-echo method
[3] = xn = mol fraction of the nth substance listed; conditions: 101 kPa, Liquid, x2 = 0; for speed of sound: Pulse-echo method

ClCCCCCCCl [1,6-dichlorohexane]
Conditions	mass density [kg/m3]	molar heat capacity at constant pressure [J/K/mol]	speed of sound [m/s]
[1], 293.15 K	–	239.21	–
[1], 294.15 K	–	239.5	–
[1], 295.15 K	–	239.69	–
[1], 296.15 K	–	240.02	–
[1], 297.15 K	–	240.35	–
[1], 298.15 K	–	240.64	–
[1], 299.15 K	–	240.85	–
[1], 300.15 K	–	241.15	–
[1], 301.15 K	–	241.46	–
[1], 302.15 K	–	241.8	–
[1], 303.15 K	–	242.06	–
[1], 304.15 K	–	242.34	–
[1], 305.15 K	–	242.62	–
[1], 306.15 K	–	242.83	–
[1], 307.15 K	–	243.21	–
[1], 308.15 K	–	243.49	–
[1], 309.15 K	–	243.73	–
[1], 310.15 K	–	244	–
[1], 311.15 K	–	244.35	–
[1], 312.15 K	–	244.68	–
[1], 313.15 K	–	244.91	–
[2], 293.01 K	–	–	1337.8
[2], 293.15 K	1068.33	–	–
[2], 298.15 K	1063.61	–	–
[2], 298.18 K	–	–	1319.7
[2], 303.15 K	1058.87	–	1302.4
[2], 308.14 K	–	–	1285
[2], 308.15 K	1054.14	–	–
[2], 313.15 K	1049.39	–	–
[2], 313.23 K	–	–	1267.4

CCCCCCC [heptane]
[2]
Conditions	mass density [kg/m3]	speed of sound [m/s]
292.7 K	–	1154.1
293.15 K	683.79	–
298 K	–	1131.1
298.15 K	679.56	–
302.98 K	–	1109.5
303.15 K	675.3	–
308.06 K	–	1087.4
308.15 K	671.02	–
313.15 K	666.71	–
313.45 K	–	1064.3

CCCCCCC [heptane] + ClCCCCCCCl
[3]
Conditions	mass density [kg/m3]	speed of sound [m/s]
292.7 K	–	1154.1
293.15 K	683.79	–
298 K	–	1131.1
298.15 K	679.56	–
302.98 K	–	1109.5
303.15 K	675.3	–
308.06 K	–	1087.4
308.15 K	671.02	–
313.15 K	666.71	–
313.45 K	–	1064.3
